In US10968236B2, “TYK2 inhibitors and uses thereof” (Nimbus Lakshmi, Inc., priority 2015, dated 2021):
pEC50, pKi: −log10 of the molar value.

Experiments:
JAK2 = JAK2 (Homo sapiens (Human), UniProt O60674); assay: JAK2 activity inhibition assay (radioactive kinase / Caliper assay); type: biochemical
TYK2 = TYK2 (Homo sapiens (Human), UniProt P29597); assay: Tyk2 activity inhibition assay (radioactive kinase / Caliper assay); type: biochemical
[1] = test system: GM-CSF induced pSTAT5 (JAK2-pSTAT5); assay: GM-CSF Induced pSTAT5 in human PBMC; type: cell-based; conditions: GM-CSF 5 ng/mL
Procedure: GM-CSF Induced pSTAT5 in human PBMC. Cells are prepared for analysis as in the above procedure and 15 μl of GM-CSF (final concentration 5 ng/mL) is added for 20 minutes prior to pSTAT5 and total STAT5 analysis using cell lysates prepared and analyzed by MSD reagents as per manufacturer protocol. The final DMSO concentration of compound in the assay is 0.1%.
(§1) The compound numbers correspond to the compound numbers in Table 1. Compounds having an activity designated as “A” provided an EC50≤2 μM; compounds having an activity designated as “B” provided a EC50 of 2-20 μM, and compounds having an activity designated as “C” provided an EC50>20 μM.

[2] = test system: IL-12 induced pSTAT4 (Tyk2-pSTAT4); assay: IL-12 Induced pSTAT4 in human PBMC; type: cell-based; conditions: IL-12 1.7 ng/mL
Procedure: IL-12 Induced pSTAT4 in human PBMC. Human PBMC are isolated from buffy coat and are stored frozen for assays as needed. Cells for assay are thawed and resuspended in complete media containing serum, then cells are diluted to 1.67 E6 cells/ml so that 120 μl per well is 200,000 cells. 15 μl of compound or DMSO is added to the well at the desired concentrations and incubated at 1 hr at 37 C. 15 μl of stimulus (final concentration of 1.7 ng/mL IL-12) is added for 30 minutes prior to pSTAT4 and total STAT4 analysis using cell lysates prepared and analyzed by MSD reagents as per manufacturer protocol. The final DMSO concentration of compound in the assay is 0.1%.
as §1

Chain of JAK2 (O60674 whole entry): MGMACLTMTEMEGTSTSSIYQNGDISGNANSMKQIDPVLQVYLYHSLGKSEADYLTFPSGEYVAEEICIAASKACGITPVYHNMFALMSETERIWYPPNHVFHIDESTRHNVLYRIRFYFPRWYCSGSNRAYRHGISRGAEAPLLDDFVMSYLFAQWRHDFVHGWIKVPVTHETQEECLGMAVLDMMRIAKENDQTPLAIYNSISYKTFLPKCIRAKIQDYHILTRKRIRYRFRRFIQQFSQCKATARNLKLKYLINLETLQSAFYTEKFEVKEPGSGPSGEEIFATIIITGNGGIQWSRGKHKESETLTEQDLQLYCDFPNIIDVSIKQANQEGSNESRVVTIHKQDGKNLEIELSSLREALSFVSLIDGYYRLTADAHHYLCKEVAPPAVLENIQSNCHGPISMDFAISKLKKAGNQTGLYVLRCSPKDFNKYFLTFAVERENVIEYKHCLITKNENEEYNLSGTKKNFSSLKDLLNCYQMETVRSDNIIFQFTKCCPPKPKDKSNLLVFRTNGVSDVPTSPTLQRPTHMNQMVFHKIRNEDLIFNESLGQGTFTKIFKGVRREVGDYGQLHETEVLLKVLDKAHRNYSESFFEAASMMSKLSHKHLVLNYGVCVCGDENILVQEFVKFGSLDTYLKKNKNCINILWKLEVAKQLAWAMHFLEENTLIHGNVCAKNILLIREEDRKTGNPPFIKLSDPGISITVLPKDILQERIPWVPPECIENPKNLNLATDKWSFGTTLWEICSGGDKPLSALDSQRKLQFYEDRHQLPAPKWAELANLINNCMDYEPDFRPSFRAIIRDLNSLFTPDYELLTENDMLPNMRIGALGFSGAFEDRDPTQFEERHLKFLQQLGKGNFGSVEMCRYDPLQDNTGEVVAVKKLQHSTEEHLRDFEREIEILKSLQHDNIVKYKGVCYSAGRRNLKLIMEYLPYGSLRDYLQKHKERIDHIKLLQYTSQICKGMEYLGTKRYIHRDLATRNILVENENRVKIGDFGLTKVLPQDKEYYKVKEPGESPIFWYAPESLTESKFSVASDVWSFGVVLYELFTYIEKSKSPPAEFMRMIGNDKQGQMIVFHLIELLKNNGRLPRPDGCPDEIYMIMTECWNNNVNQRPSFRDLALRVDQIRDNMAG
Chain of TYK2 (P29597 whole entry): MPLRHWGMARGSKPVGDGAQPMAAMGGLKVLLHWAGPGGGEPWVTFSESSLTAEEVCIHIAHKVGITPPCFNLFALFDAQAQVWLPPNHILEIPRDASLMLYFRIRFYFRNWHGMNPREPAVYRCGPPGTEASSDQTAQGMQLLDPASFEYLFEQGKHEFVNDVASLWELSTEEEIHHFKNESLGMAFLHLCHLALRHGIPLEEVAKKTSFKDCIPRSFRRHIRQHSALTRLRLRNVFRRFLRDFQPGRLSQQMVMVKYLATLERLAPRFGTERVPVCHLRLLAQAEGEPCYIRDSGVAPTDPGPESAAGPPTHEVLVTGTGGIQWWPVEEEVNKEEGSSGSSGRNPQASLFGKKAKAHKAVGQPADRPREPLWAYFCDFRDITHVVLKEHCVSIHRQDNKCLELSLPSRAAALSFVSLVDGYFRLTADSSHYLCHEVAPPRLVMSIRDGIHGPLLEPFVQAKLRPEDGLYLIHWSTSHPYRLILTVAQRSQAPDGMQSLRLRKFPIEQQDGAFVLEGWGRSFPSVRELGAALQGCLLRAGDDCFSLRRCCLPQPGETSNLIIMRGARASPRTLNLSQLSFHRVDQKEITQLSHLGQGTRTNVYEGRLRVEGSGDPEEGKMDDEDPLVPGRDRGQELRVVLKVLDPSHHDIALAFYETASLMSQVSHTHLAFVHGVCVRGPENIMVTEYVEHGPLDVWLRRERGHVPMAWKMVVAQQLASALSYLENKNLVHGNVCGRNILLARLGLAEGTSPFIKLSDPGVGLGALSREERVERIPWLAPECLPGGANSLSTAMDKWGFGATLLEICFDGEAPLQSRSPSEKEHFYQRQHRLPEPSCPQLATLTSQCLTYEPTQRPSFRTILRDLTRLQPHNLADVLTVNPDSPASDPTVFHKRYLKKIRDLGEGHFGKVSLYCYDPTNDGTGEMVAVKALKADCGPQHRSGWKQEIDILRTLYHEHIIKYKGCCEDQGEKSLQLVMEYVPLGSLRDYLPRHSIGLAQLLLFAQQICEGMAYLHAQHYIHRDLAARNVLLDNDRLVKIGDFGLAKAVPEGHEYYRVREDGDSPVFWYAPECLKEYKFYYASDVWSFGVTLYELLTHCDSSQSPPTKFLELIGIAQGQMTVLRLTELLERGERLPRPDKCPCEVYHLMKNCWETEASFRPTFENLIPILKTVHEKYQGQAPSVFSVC

| pKi (JAK2) | pKi (TYK2) | pEC50 [1] | pEC50 [2] | SMILES |
| --- | --- | --- | --- | --- |
| 7.00 to 8.00 | ≥ 8.00 | 4.70 to 5.70 | ≥ 5.70 | CCNC(=O)[C@@](C)(O)c1ccc(Nc2nc(-c3c(F)cccc3F)nc3c2C(=O)NC3)cc1 [Compound I-15, (S)-2-(4-((2-(2,6-difluorophenyl)-5-oxo-6,7-dihydro-5H-pyrrolo[3,4-d]pyrimidin-4-yl)amino)phenyl)-N-ethyl-2-hydroxypropanamide] |
| 7.00 to 8.00 | ≥ 8.00 | 4.70 to 5.70 | ≥ 5.70 | CC1(C)CNc2cc(Nc3nc(-c4c(F)cccc4F)nc4c3C(=O)NC4)ccc21 [Compound I-2, 2-(2,6-difluorophenyl)-4-((3,3-dimethylindolin-6-yl)amino)-6,7-dihydro-5H-pyrrolo[3,4-d]pyrimidin-5-one] |
| 7.00 to 8.00 | ≥ 8.00 | ≥ 5.70 | ≥ 5.70 | O=C1NCc2nc(-c3c(F)cccc3F)cc(Nc3ccc(N4C[C@H]5CC[C@@H](C4)O5)cn3)c21 [Compound I-4, 4-((5-((1R,5S)-8-oxa-3-azabicyclo[3.2.1]octan-3-yl)pyridin-2-yl)amino)-2-(2,6-difluorophenyl)-6,7-dihydro-5H-pyrrolo[3,4-b]pyridin-5-one] |
| ≤ 6.00 | 7.00 to 8.00 | < 4.70 | < 4.70 | O=C1NCc2c1c(Nc1ccc(C(=O)N3CCOCC3)cc1)cc(-c1c(F)cccc1F)[n+]2[O-] [Compound I-84, 2-(2,6-difluorophenyl)-4-((4-(morpholine-4-carbonyl)phenyl)-amino)-5-oxo-6,7-dihydro-5H-pyrrolo[3,4-b]pyridine 1-oxide] |
| 7.00 to 8.00 | ≥ 8.00 | 4.70 to 5.70 | ≥ 5.70 | O=C1NCc2nc(-c3c(F)cccc3F)cc(Nc3ccc4c(n3)NCCCO4)c21 [Compound I-18, 2-(2,6-difluorophenyl)-4-((2,3,4,5-tetrahydropyrido[3,2-b][1,4]oxazepin-7-yl)amino)-6,7-dihydro-5H-pyrrolo[3,4-b]pyridin-5-one] |
| 7.00 to 8.00 | ≥ 8.00 | 4.70 to 5.70 | ≥ 5.70 | N#Cc1cccc(F)c1-c1cc(Nc2ccc(N3CCOC4(CC4)C3)nc2)c2c(n1)CNC2=O [Compound I-79, 2-(4-((6-(4-oxa-7-azaspiro[2.5]octan-7-yl)pyridin-3-yl)amino)-5-oxo-6,7-dihydro-5H-pyrrolo[3,4-b]pyridin-2-yl)-3-fluorobenzonitrile] |
| 7.00 to 8.00 | ≥ 8.00 | 4.70 to 5.70 | ≥ 5.70 | O=C1NCc2nc(-c3c(F)cccc3F)cc(Nc3cc4c(cn3)CCN4)c21 [Compound I-17, 2-(2,6-difluorophenyl)-4-((2,3-dihydro-1H-pyrrolo[3,2-c]pyridin-6-yl)amino)-6,7-dihydro-5H-pyrrolo[3,4-b]pyridin-5-one] |
| ≥ 8.00 | ≥ 8.00 | 4.70 to 5.70 | ≥ 5.70 | O=C1NCc2nc(-c3c(F)cccc3F)cc(Nc3ccc(C(=O)N4CCC5(CCOCC5)CC4)cc3)c21 [Compound I-58, 4-((4-(3-oxa-9-azaspiro[5.5]undecane-9-carbonyl)phenyl)amino)-2-(2,6-difluorophenyl)-6,7-dihydro-5H-pyrrolo[3,4-b]pyridin-5-one] |
| 6.00 to 7.00 | ≥ 8.00 | < 4.70 | ≥ 5.70 | CC1(C)COc2cc(Nc3cc(-c4c(F)cccc4F)nc4c3C(=O)NC4)ccc21 [Compound I-70, 2-(2,6-difluorophenyl)-4-((3,3-dimethyl-2,3-dihydrobenzofuran-6-yl)amino)-6,7-dihydro-5H-pyrrolo[3,4-b]pyridin-5-one] |
| 6.00 to 7.00 | ≥ 8.00 | 4.70 to 5.70 | ≥ 5.70 | O=C1NCc2nc(-c3c(F)cccc3F)nc(Nc3ccc4c(c3)NCC4)c21 [Compound I-1, 2-(2,6-difluorophenyl)-4-(indolin-6-ylamino)-6,7-dihydro-5H-pyrrolo[3,4-d]pyrimidin-5-one] |
| ≥ 8.00 | ≥ 8.00 | ≥ 5.70 | ≥ 5.70 | N#Cc1cccc(F)c1-c1cc(Nc2ccc(N3CCC4(C[C@H](O)CO4)C3)cn2)c2c(n1)CNC2=O (stereo in doubt) [Compound I-91, 3-fluoro-2-(4-((5-((3S,5S)-3-hydroxy-1-oxa-7-azaspiro[4.4]nonan-7-yl)pyridin-2-yl)amino)-5-oxo-6,7-dihydro-5H-pyrrolo[3,4-b]pyridin-2-yl)benzonitrile] |
| ≤ 6.00 | 7.00 to 8.00 | < 4.70 | < 4.70 | O=C1CCOc2cc(Nc3cc(-c4c(F)cccc4F)nc4c3C(=O)NC4)ccc21 [Compound I-72, 2-(2,6-difluorophenyl)-4-((4-oxochroman-7-yl)amino)-6,7-dihy-dro-5H-pyrrolo[3,4-b]pyridin-5-one] |
| 7.00 to 8.00 | ≥ 8.00 | < 4.70 | ≥ 5.70 | O=C1NCc2nc(-c3c(F)cccc3F)cc(Nc3ccc(N4CCC5(CC4)CC5)cn3)c21 [Compound I-20, 4-((5-(6-azaspiro[2.5]octan-6-yl)pyridin-2-yl)amino)-2-(2,6-difluorophenyl)-6,7-dihydro-5H-pyrrolo[3,4-b]pyridin-5-one] |
| 7.00 to 8.00 | ≥ 8.00 | 4.70 to 5.70 | ≥ 5.70 | O=C1NCc2nc(-c3c(F)cccc3F)cc(Nc3ccc(N4CCCC5(CCO5)C4)cn3)c21 (stereo not drawn) [Compound I-36, 4-((5-(1-oxa-6-azaspiro[3.5]nonan-6-yl)pyridin-2-yl)amino)-2-(2,6-difluorophenyl)-6,7-dihydro-5H-pyrrolo[3,4-b]pyridin-5-one] |
| ≥ 8.00 | ≥ 8.00 | ≥ 5.70 | ≥ 5.70 | N#Cc1cccc(F)c1-c1cc(Nc2ccc(N3CCC4(CC(O)CO4)C3)cn2)c2c(n1)CNC2=O (stereo in doubt) [Compound I-89, 3-fluoro-2-(4-((5-((3S,5R)-3-hydroxy-1-oxa-7-azaspiro[4.4]nonan-7-yl)pyridin-2-yl)amino)-5-oxo-6,7-dihydro-5H-pyrrolo[3,4-b]pyridin-2-yl)benzonitrile] |
| ≥ 8.00 | ≥ 8.00 | 4.70 to 5.70 | ≥ 5.70 | O=C1NCc2nc(-c3c(F)cccc3F)cc(Nc3ccc(N4CCOC45COC5)cn3)c21 [Compound I-65, 4-((5-(2,5-dioxa-8-azaspiro[3.4]octan-8-yl)pyridin-2-yl)amino)-2-(2,6-difluorophenyl)-6,7-dihydro-5H-pyrrolo[3,4-b]pyridin-5-one] |
| 7.00 to 8.00 | ≥ 8.00 | 4.70 to 5.70 | ≥ 5.70 | N#Cc1cc(F)c(-c2cc(Nc3ccc(N4CCC5(CC4)CC5)cn3)c3c(n2)CNC3=O)c(F)c1 [Compound I-60, 4-(4-((5-(6-azaspiro[2.5]octan-6-yl)pyridin-2-yl)amino)-5-oxo-6,7-dihydro-5H-pyrrolo[3,4-b]pyridin-2-yl)-3,5-difluorobenzonitrile] |
| 7.00 to 8.00 | ≥ 8.00 | ≥ 5.70 | ≥ 5.70 | CC1(C)CNc2nc(Nc3cc(-c4c(F)cccc4F)nc4c3C(=O)NC4)ccc21 [Compound I-10, 2-(2,6-difluorophenyl)-4-((3,3-dimethyl-2,3-dihydro-1H-pyrrolo[2,3-b]pyridin-6-yl)amino)-6,7-dihydro-5H-pyrrolo[3,4-b]pyridin-5-one] |
